The values that follow come from patent US20080200393A1, “Method and Composition For Treating Angiogenesis and For Preventing Cancer Progression and Metastasis Comprising a Prostate Secretory Protein (Psp94) Family Member” (Ambrillia Biopharma Inc., priority 2004, published 2008).

Where no end group is shown, it is not given here.

The subject of one test is glioma cells (U-87). The experiment in a line: SEAP gene-reporter assay (Mercury Profiling Kit). The test is classed as cell-based. The protocol: In order to investigate the potential intracellular pathways triggered by the PCK3145 derivative, a gene-reporter assay using the SEAP (Secreted Alkaline Phosphatase) Mercury Profiling Kit (CLONTECH) was performed in glioma cells (U-87). This assay enables the monitoring of transcription factors that are triggered by a particular experimental condition by assaying the alkaline phosphatase activity in the extracellular media.
(Reporter assays use an easily measured gene product as a stand-in for the process of interest.)

The subject of a further test is U-87 cells. The experiment in a line: U-87 cell migration on hyaluronic acid. The format is cell-based. Particulars: 300 ug/ml, 48 hrs pretreatment; HA-coated filters, 2 hours. The protocol: The biological activity of a desired polypeptide may further be determined using migration assays. U-87 cells are treated with a polypeptide of the present invention (e.g., any PCK3145 derivative, fragment, analog, such as for example, any one of or combinations of SEQ ID NOs.: 9 to 98). The treated cells are trypsinised, counted, and seeded on HA-coated filters inserted in modified Boyden Chambers as described herein or in the art. Cell migration is allowed to proceed for 2 hours at 37° C. Filters are then stained for cells that have migrated through the filter. A decreased basal U-87 cell migration observed in cells treated with a polypeptide of the present invention is indicative of a biologically active polypeptide (i.e., a biologically active PCK3145 derivative, fragment, analog).
Migration/invasion of cancer cells is a key event in tumor metastasis. In vitro, this process can be reconstituted by plating cells onto ECM-coated filters inserted in modified Boyden chemotactic chambers. The effect of the PCK3145 derivative can be monitored by the number of cells that had migrated comparatively to untreated control cells. […] U-87 cells were treated with the PCK3145 derivative (300 ug/ml, 48 hrs), trypsinised, counted, and seeded on HA-coated filters inserted in modified Boyden Chambers. […]

In the next test the test system is CD44. The experiment in a line: CD44 cell surface shedding (Western blot of conditioned media). The test is classed as cell-based. Particulars: serum-starved U-87, 300 ug/ml, 24 hours. The protocol:
Decreased cell migration and adhesion on HA was observed when U-87 cells were pretreated with the PCK3145 derivative. This can be interpreted as either a potential downregulation of CD44 expression at the cell surface or by a potential cell surface shedding. The latter hypothesis was tested by incubating serum-starve U-87 cells for 24 hours with the PCK3145 derivative (300 ug/ml), a concentration known to antagonize MMP secretion. The conditioned media was then TCA-precipitated and Westernblotting an immunodetection for a 75 kDa immunoreactive protein using the anti-CD44 antibody was performed. […] This effect is also shown in parallel with MT1-MMP-transfected cells. Such effect has been already reported by many groups and is established as one of the MT1-MMP-mediated functions in the regulation of the ECM adhesion. […] This induction has subsequently been reproduced below. Altogether, these observations provide a rational for the diminished cell migration/adhesion to HA.
For orientation: In western blotting, separated proteins are transferred to a membrane and probed.

A further test relates to proMMP-2. Nature of the test: Gelatin zymography of HUVEC conditioned media. The test is classed as cell-based, Human. The protocol: Zymography. Zymography is a technique generally used to analyze the activity of matrix metalloproteinases (MMPs) in biological samples. It involves the electrophoretic separation of proteins under denaturing (Sodium Dodecyl Sulfate (SDS)) but non-reducing conditions through a polyacrylamide gel containing gelatin (for example, 10% gel containing 1 mg/ml gelatin for MMP-9 and MMP-2 assays). The resolved proteins are re-natured by exchanging SDS with a non-ionic detergent such as Triton X-100 and the gel is incubated in an incubation buffer for activation of MMP-2 and MMP-9 (for example at 37° C. for 18 hrs). The gel is stained with Coomassie blue and the MMP-2 and MMP-9 bands may be visualized as clear bands against a blue background (i.e., the MMPs degrade the gelatin and are visualized as clear bands; pro MMP-2 is 68 kDa and pro-MMP-9 is 92 kDa). These bands can be quantified using densitometry. For example, prior to stimulation, quiescent HUVEC were serum-starved for 16 h in the presence or absence of PCK3145 or PD98059 and then stimulated with VEGF. The conditioned media were collected 24 h after stimulation, and clarified by centrifugation. Identical volume of conditioned media were mixed with non reducing Laemmli sample buffer and subjected to 7.5% SDS-polyacrylamide gels containing 1 mg/ml gelatin (Sigma). The gels were then incubated for 30 min at room temperature twice in 2.5% (v/v) Triton X-100 and rinsed five times in doubly distilled water. The gels were incubated at 37° C. for a further 18 h in 200 mM NaCl/5 mM CaCl2/0.02% (v/v) Brij-35/50 mM Tris/HCl buffer (pH 7.6), then stained with 0.1% Coomassie Brilliant Blue R-250, followed by destaining in 10% (v/v) acetic acid/30% (v/v) methanol in water. Gelatinolytic activity was detected as unstained bands on a blue background.
The effect of the PCK3145 derivative (SEQ ID NO.:7) on MMP extracellular levels was thus assessed by gelatin-zymography in the conditioned media of serum-starved HUVEC. After 16 hours of starvation, HUVEC were stimulated with VEGF in the presence or not of the PCK3145 derivative. […]

The subject of the next test is MMP-9. Nature of the test: Western blot of MMP-9 in MatLyLu cell culture media. The test is classed as cell-based. Conditions: MatLyLu cells, 100 ug/ml, 500 ug/ml and 1 mg/ml, 72 hrs. The protocol: A separate western blot experiment was performed in which MatLyLu cells were treated with 100 ug/ml, 500 ug/ml and 1 mg/ml of the PCK3145 derivative for 72 hrs. At the end of the experiment, the media were collected and concentrated 5 times using Amicon centrifugal filter devices (3500 molecular weight cut-off).
Twenty five microliters samples were separated on SDS-PAGE gel under reducing conditions using pre-cast gels of 4-12% Bis-Tris (Invitrogen). Following electrophoresis, the proteins were transferred on nitrocellulose membrane. Non-specific binding sites were blocked using 5% skimmed milk in 10 mM phosphate buffer saline (PBS) containing 0.05% Tween-20 for 1 hour at room temperature. The membrane was later incubated with a primary antibody (monoclonal, RDI-MMP-9abm-2A5) at a concentration of 1 ug/ml (in 10 mM PBS, containing 0.5% bovine serum albumin (BSA) and 0.05% Tween-20) for 3 hours at room temperature.
The membranes were washed three times in PBS (5 minutes each wash) to remove non-specific binding and they were incubated with the secondary antibody (Rabbit anti-mouse IgG horseradish peroxidase-conjugated (Dako no. 0260)) at a dilution of 1:5000 for one hour. Detection of specific MMP-9 protein was made by incubating the membrane in ECL™ reagent (electro-chemoluminescence, Roche) and exposing to the X-ray film.

For another test, the system named is MT1-MMP. Nature of the test: MT1-MMP expression in U-87 cells. The format is cell-based. Particulars: 300 ug/ml.

“EWQTDNCETCTCYET (cysteine pairing not given here) [PCK3145 derivative, PCK3145 derivative with acetylaminomethyl groups on the three cysteines]”: in the test on glioma cells (U-87), the “MAPK/JNK pathway (SRE), SEAP reporter” value is “triggers significantly”; the “NFkB pathway, SEAP reporter” value was “triggers significantly”; the “secretion of the constitutively expressed SEAP” value is listed as “inhibited”. In the test on U-87 cells, the “decrease of basal U-87 cell migration” value is “approximately 3 fold”. In the test with CD44, the “CD44 cell surface shedding” value is “increased”. For the same sequence, the “inhibition of VEGF-induced proMMP-2 secretion” value in the test on proMMP-2 (HUVEC, 300 μg/ml) was “approximately 50%”. The “downregulation of basal proMMP-2 levels in the extracellular media” value in the test on proMMP-2 (serum-starved HUVEC, 24 hours treatment) is “approximately 35%”. The “MMP-9 levels (western blot)” value in the test with MMP-9 is “dose-dependent reduction”. For the same sequence, the MT1-MMP expression entry in the test with MT1-MMP was “slight increase”.
